Measurements as given in publication PMC5860131, “Identification of natural products as novel ligands for the human 5-HT2C receptor” (Biophysics Reports, 2018).

Experiments:
Format in all cases: binding
[1] = molecular target: T1, 5-HT2C receptor T139^3.37A (Homo sapiens, UniProt P28335, DEL255-298/G251D/H250E/H252N/INS299[…]/L248D/M247A/M300L/T139A/T253W); assay: CPM thermal stability assay, 5-HT2C mutant T139A; conditions: mutant T139^3.37A, n = 2
T1 construct: the N- and C-terminals were truncated by 39 and 65 residues, respectively; PreScission protease site + 10× His (C); made in house
From the text: (§1) Based on the binding poses predicted by molecular docking, single-point mutations were designed to test their impact on ligand binding. Mutations of several residues include the highly conserved Asp134^3.32, which is known to cause 5-HT1B or 5-HT2B receptors to abolish the monoamine ligand binding as reported in the literature (Wang et al. [2013]). In this study, residues forming hydrophobic interactions with the substitution groups on the aporphine scaffold of (–)-crebanine (1) were selected for mutation as well and they are Thr139^3.37, Gly218^5.42, Ala222^5.46, and Leu209^ECL2. Effects of those mutations were tested with the CPM assay and the affinity MS assay (Table 2). In the affinity MS experiment, relative ligand-binding capacity (represented by binding %) to different mutants and the wild-type receptor was compared. […]
(§2) Purified 5-HT2C receptor protein was thoroughly mixed with CPM fluorescent dyes. […] Fluorescence signals, wavelength 387 nm (excitation) and 463 nm (emission), were monitored (Alexandrov et al. [2008]). […] The thermal denaturation of the samples was evaluated using the scatter plot curve, where the horizontal coordinates represented temperature and the vertical coordinates indicated normalized fluorescence intensity recorded for a particular temperature. […]

[2] = molecular target: T2, 5-HT2C receptor A222^5.46F (Homo sapiens, UniProt P28335, A222F/DEL255-298/G251D/H250E/H252N/INS299[…]/L248D/M247A/M300L/T253W); assay: Affinity MS assay, 5-HT2C mutant A222F; conditions: mutant A222^5.46F, n = 2
T2 construct: the N- and C-terminals were truncated by 39 and 65 residues, respectively; PreScission protease site + 10× His (C); made in house
From the text: as §1, with “compared. Among the six mutations tested, five of them reduced the binding of (–)-crebanine (1) by more than 40% relative to binding to the wild-type receptor, displaying the importance of hydrophobic interactions.” for “compared.”
(§3) Four experimental replicates were prepared for each pair of the test ligand and the negative control. […] S/C ratios refer to the ratio of MS response of a specific ligand detected in the 5-HT2C incubation sample versus the control. […]

[3] = molecular target: T3, 5-HT2C receptor L209^ECL2F (Homo sapiens, UniProt P28335, DEL255-298/G251D/H250E/H252N/INS299[…]/L209F/L248D/M247A/M300L/T253W); assay: CPM thermal stability assay, 5-HT2C mutant L209F; conditions: n = 2
T3 construct: the N- and C-terminals were truncated by 39 and 65 residues, respectively; PreScission protease site + 10× His (C); made in house
From the text: as §1, §2

[4] = molecular target: T4, 5-HT2C receptor G218^5.42A (Homo sapiens, UniProt P28335, DEL255-298/G218A/G251D/H250E/H252N/INS299[…]/L248D/M247A/M300L/T253W); assay: Affinity MS assay, 5-HT2C mutant G218A
T4 construct: the N- and C-terminals were truncated by 39 and 65 residues, respectively; PreScission protease site + 10× His (C); made in house
From the text: as §1, with “compared. Among the six mutations tested, five of them reduced the binding of (–)-crebanine (1) by more than 40% relative to binding to the wild-type receptor, displaying the importance of hydrophobic interactions.” for “compared.”
as §3

T4 sequence (P28335 with tags, fused parts or gaps with the stated changes): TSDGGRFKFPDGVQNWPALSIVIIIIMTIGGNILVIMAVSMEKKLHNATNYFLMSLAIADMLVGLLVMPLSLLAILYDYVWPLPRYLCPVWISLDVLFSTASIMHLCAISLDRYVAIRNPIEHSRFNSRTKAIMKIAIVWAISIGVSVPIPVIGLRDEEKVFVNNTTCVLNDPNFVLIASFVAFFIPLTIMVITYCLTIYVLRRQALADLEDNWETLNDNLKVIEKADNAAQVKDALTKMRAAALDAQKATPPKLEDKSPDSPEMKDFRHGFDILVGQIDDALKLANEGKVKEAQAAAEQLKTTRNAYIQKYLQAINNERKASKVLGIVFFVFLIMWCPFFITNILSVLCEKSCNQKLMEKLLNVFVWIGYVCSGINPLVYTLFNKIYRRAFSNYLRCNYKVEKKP
T2 sequence (P28335 with tags, fused parts or gaps with the stated changes): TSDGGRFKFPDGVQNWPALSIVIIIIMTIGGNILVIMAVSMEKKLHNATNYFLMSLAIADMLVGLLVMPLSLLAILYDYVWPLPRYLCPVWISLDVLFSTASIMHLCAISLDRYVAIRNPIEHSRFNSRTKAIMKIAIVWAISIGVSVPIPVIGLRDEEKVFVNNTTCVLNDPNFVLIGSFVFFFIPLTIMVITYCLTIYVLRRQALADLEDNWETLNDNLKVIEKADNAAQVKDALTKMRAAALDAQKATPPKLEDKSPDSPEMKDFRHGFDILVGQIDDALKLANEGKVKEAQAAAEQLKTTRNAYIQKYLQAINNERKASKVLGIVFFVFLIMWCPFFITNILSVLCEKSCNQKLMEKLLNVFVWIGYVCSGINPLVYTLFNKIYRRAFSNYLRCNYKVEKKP
T1 sequence (P28335 with tags, fused parts or gaps with the stated changes): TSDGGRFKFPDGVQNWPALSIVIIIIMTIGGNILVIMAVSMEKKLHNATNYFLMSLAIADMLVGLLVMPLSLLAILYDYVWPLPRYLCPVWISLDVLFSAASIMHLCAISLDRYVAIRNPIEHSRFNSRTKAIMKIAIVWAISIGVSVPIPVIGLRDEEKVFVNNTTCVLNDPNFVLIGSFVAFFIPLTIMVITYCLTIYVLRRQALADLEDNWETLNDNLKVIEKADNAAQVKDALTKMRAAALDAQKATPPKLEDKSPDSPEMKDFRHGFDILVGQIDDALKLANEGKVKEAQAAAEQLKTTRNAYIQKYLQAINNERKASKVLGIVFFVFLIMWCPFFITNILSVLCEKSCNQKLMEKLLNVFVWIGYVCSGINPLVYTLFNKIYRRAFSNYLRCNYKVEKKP
T3 sequence (P28335 with tags, fused parts or gaps with the stated changes): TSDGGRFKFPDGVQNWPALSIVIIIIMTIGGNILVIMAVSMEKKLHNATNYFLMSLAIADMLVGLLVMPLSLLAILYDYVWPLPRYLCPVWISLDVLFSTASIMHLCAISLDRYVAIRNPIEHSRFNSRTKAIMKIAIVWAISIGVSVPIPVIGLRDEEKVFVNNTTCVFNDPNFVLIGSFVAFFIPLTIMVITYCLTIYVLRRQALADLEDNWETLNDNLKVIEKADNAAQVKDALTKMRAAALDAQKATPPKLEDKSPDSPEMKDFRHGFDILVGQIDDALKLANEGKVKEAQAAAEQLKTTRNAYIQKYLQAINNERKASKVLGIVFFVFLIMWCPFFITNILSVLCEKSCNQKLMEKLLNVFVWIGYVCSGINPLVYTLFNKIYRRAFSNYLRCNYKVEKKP

Question: `COc1ccc2c(c1OC)C[C@@H]1c3c(cc4c(c3-2)OCO4)CCN1C` [Compound 1, (–)-crebanine] was tested. Which “(–)-Crebanine/CPM (Tm)” value [1] did it give?
Answer: Its value is 54.63 °C.

Question: And the “(–)-Crebanine/MS relative ligand binding” value [2]?
Answer: Its value is 15.87%.

Question: What about the “(–)-Crebanine/CPM (Tm)” value [3] of the same molecule?
Answer: The value was 55.46 °C.

Question: What about the “(–)-Crebanine/MS relative ligand binding” value ([4]; mutant G218^5.42A, n = 2) of the same molecule?
Answer: Its value is 9.82%.

Question: What about the “ligand-binding capacity reduction versus wild-type” value ([4]; mutation Gly218^5.42Ala) of the same molecule?
Answer: Its value is “over 60%”.
